Experimental data from patent US9447408B2, “Method of efficiently establishing induced pluripotent stem cells” (Kyoto University, priority 2010, dated 2016).

What was measured:
[1] = system: Mouse embryonic fibroblasts (MEFs); assay: iPS cell establishment from Nanog-GFP reporter MEFs, 4 genes (Oct3/4, Sox2, Klf4, c-Myc) introduced, with p38 inhibitors; type: cell-based; details: for number of Nanog-GFP-positive colonies compared with physiological saline or DMSO: 10 μM inhibitor added on days 1 to 4 after the infection
Description: Mouse embryonic fibroblasts (MEFs) from a Nanog reporter mouse carrying Nanog-GFP—IRES-Puro^r [Okita K. et al, Nature 448, 313-317 (2007)] were transfected with four genes using a retrovirus to induce iPS cells.
Each retrovirus for reprogramming was prepared by transferring each of retroviral expression vectors (pMXs-Oct3/4, pMXs-Sox2, pMXs-Klf4, pMXs-cMyc:Cell, 126, 663-676 (2006)) to Plat-E cells (Morita, S. et al., Gene Ther. 7, 1063-1066) that had been seeded to a 6-well culture plate (Falcon) at 0.6×10^6 cells per well on the day before. The cells were cultured at 37° C. in the presence of 5% CO2 using DMEM/10% FCS [a culture broth prepared by adding 10% fetal calf serum to DMEM (Nacalai Tesque)]. To facilitate vector transfer, 4.5 μL of FuGene6 transfection reagent (Roche) was placed in 100 μL of Opti-MEM I Reduced-Serum Medium (Invitrogen), and the medium was allowed to stand at room temperature for 5 minutes. Subsequently, 1.5 μg of each expression vector was added, and the medium was allowed to further stand at room temperature for 15 minutes, after which they were added to the Plat-E culture broth. On day 2, the Plat-E supernatant was replaced with a fresh supply of the medium. On day 3, the culture supernatant was recovered and filtered through a 0.45 μm sterile filter (Whatman), and polybrene (Nacalai) was added at 4 μg/mL to yield a viral liquid.
Mouse embryonic fibroblasts (MEFs) were isolated from a fetal Nanog reporter mouse (13.5 days after fertilization). […] Not expressing the puromycin resistance gene as well, MEFs are susceptible to the antibiotic puromycin. As such, MEFs were seeded to a 6-well culture plate (Falcon), previously coated with 0.1% gelatin (Sigma), at 1.0×10^5 cells per well. DMEM/10% FCS served as the culture broth at 37° C. in the presence of 5% CO2. The following day, each retrovirus liquid was added, and this was followed by overnight infection to introduce the genes.
On day 1 after the viral infection, the medium for the MEFs was removed, and the cells were washed by the addition of 1 mL of PBS. After removing the PBS, 0.25% Trypsin/1 mM EDTA (Invitrogen) was added, and a reaction was carried out at 37° C. for about 5 minutes. After the cells floated up, the cells were suspended by the addition of an ES cell culture medium and 2500 cells were seeded to a 100 mm dish having mitomycin C-treated STO feeder cells seeded thereto previously. Cultivation was continued while replacing the ES cell culture medium with a fresh supply of the same medium every two days until a visible colony emerged.
To determine the effects of p38 inhibitors on the establishment of iPS cells by the introduction of the four mouse genes, cultivation was continued with the addition of 10 μM of the p38 inhibitor 5B202190, SB239063, or SB203580 (Calbiochem Company) to the medium per the schedule shown below. All these inhibitors were used in solution in DMSO. • 1. Oct3/4, Sox2, Klf4, c-Myc, each derived from mouse, saline • 2. Oct3/4, Sox2, Klf4, c-Myc, each derived from mouse, DMSO • 3. Oct3/4, Sox2, Klf4, c-Myc, each derived from mouse, SB202190 10 μM Day 1-4) • 4. Oct3/4, Sox2, Klf4, c-Myc, each derived from mouse, SB202190 10 μM (Day 1-8) • 5. Oct3/4, Sox2, Klf4, c-Myc, each derived from mouse, SB202190 10 μM (Day 9-16) • 6. Oct3/4, Sox2, Klf4, c-Myc, each derived from mouse, SB202190 10 μM (Day 1-16) • 7. Oct3/4, Sox2, Klf4, c-Myc, each derived from mouse, SB239063 10 μM (Day 1-4) • 8. Oct3/4, Sox2, Klf4, c-Myc, each derived from mouse, SB239063 10 μM (Day 1-8) • 9. Oct3/4, Sox2, Klf4, c-Myc, each derived from mouse, SB239063 10 μM (Day 9-16) • 10. Oct3/4, Sox2, Klf4, c-Myc, each derived from mouse, SB239063 10 μM (Day 1-16) • 11. Oct3/4, Sox2, Klf4, c-Myc, each derived from mouse, SB203580 10 μM (Day 1-4) • 12. Oct3/4, Sox2, Klf4, c-Myc, each derived from mouse, SB203580 10 μM (Day 1-8) • 13. Oct3/4, Sox2, Klf4, c-Myc, each derived from mouse, SB203580 10 μM (Day 9-16) • 14. […]

[2] = system: Human dermal fibroblasts (Tig109 line); assay: Human iPS cell colony formation, 4 genes introduced, various p38 inhibitors; type: cell-based; details: for number of iPS cell colonies on day 40 after the infection: no colonies in either control group
Description: Human dermal fibroblasts (Tig109 line) were treated using a lentivirus (pLenti6/UbC-Slc7a1) according to the method described by Takahashi, K. et al. in Cell, 131: 861-872 (2007), to express the mouse ecotropic virus receptor Slc7a1 gene. These cells (2×10^5 cells/10 cm dish) were transfected with the four genes using a retrovirus according to the method described by Takahashi, K. et al. in Cell, 131: 861-872 (2007); each compound was added per the schedule shown below. • 1. Oct3/4, Sox2, Klf4, c-Myc, each derived from human, saline • 2. Oct3/4, Sox2, Klf4, c-Myc, each derived from human, DMSO (Day 5-35) • 3. Oct3/4, Sox2, Klf4, c-Myc, each derived from human, SB202190 10 μM (Day 5-20) • 4. Oct3/4, Sox2, Klf4, c-Myc, each derived from human, SB239063 10 μM (Day 5-20) • 5. Oct3/4, Sox2, Klf4, c-Myc, each derived from human, SB202190 10 μM (Day 21-35) • 6. Oct3/4, Sox2, Klf4, c-Myc, each derived from human, SB239063 10 μM (Day 21-35) • 7. Oct3/4, Sox2, Klf4, c-Myc, each derived from human, SB202190 10 μM (Day 5-35) • 8. Oct3/4, Sox2, Klf4, c-Myc, each derived from human, SB239063 10 μM (Day 5-35) On days 24, 32, and 40 after the infection, iPS cell colonies were counted. When the four factors (Oct3/4, Sox2, Klf4, C-Myc) were combined with SB239063 added on days 5 to 20 after the infection, the number of human iPS cell colonies increased on day 24 after the infection.

Compound | number of Nanog-GFP-positive colonies compared with physiological saline or DMSO [1] | number of iPS cell colonies on day 32 after the infection ([2]; 10 μM inhibitor) | number of iPS cell colonies on day 40 after the infection ([2]; 10 μM inhibitor) | effect on iPS cell colony number on day 32, inhibitor added day 21 to day 35 ([2]; 10 μM, Day 21-35) | effect on colony count when measured on day 28 after the infection ([1]; 10 μM inhibitor on days 1 to 4, counted day 28) | colony count compared with cells treated with physiological saline or DMSO ([1]; 10 μM inhibitor on days 1 to 4 after the infection, FIG. 1) | number of human iPS cell colonies on day 24 after the infection ([2]; 10 μM added on days 5 to 20)
Oc1ccc(-c2nc(-c3ccc(F)cc3)c(-c3ccncc3)[nH]2)cc1 [SB202190, 4-(4-fluorophenyl)-2-(4-hydroxyphenyl)-5-(4-pyridyl)imidazole] | increased | capable of increasing the number of iPS cell colonies | increased remarkably | remarkable effects | – | – | –
COc1nccc(-c2c(-c3ccc(F)cc3)ncn2[C@H]2CC[C@H](O)CC2)n1 [SB239063, trans-1-(4-Hydroxycyclohexyl)-4-(4-fluorophenyl)-5-(2-methoxypyrimidin-4-yl)imidazole] | increased | – | two | – | remarkable | tended to increase | increased
